Source: ChEMBL document CHEMBL1201862, “PubChem BioAssay data set” (2004)
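How tested: cells in 96-well plates exposed to compound for 48 hours at five concentrations. GI50 is the concentration that inhibits growth by half.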 The source made the active and inactive calls. Rule as the data show it: active = GI50 up to about 1.1 µM and inactive = higher.

Experiments:
Experiment in all cases: NCI anticancer screen, dose series, 48 h
786-0 = test system: 786-0
A498 = test system: A498
UACC-257 = test system: UACC-257
U-251 = test system: U-251
NCI-H226 = test system: NCI-H226
SK-OV-3 = test system: SK-OV-3
COLO 205 = test system: COLO 205
HOP-62 = test system: HOP-62
OVCAR-3 = test system: OVCAR-3
DMS-114 = test system: DMS-114
SF-295 = test system: SF-295
SK-MEL-28 = test system: SK-MEL-28
DMS-273 = test system: DMS-273
ACHN = test system: ACHN
NCI-H522 = test system: NCI-H522
EKVX = test system: EKVX
SF-539 = test system: SF-539
SNB-78 = test system: SNB-78
BT-549 = test system: BT-549
MCF7 = test system: MCF7

Measured: GI50

COC(=O)C(Br)C1CCc2ccccc21 (stereo not drawn)
inactive: 786-0 > 100 µM | A498 > 100 µM | UACC-257 > 100 µM | U-251 > 100 µM | NCI-H226 46.3 µM | SK-OV-3 > 100 µM | COLO 205 > 100 µM | HOP-62 > 100 µM | OVCAR-3 63.1 µM | DMS-114 > 100 µM | SF-295 52.6 µM | SK-MEL-28 > 100 µM | DMS-273 > 100 µM | ACHN > 100 µM

CC(=O)c1ccccc1NC(=O)C(=O)C(C(=O)c1ccccc1-c1ccccc1)C1OC(=O)c2ccccc21 (stereo not drawn)
inactive: 786-0 18.6 µM | A498 20.5 µM | UACC-257 15.7 µM | U-251 16 µM | NCI-H226 14.9 µM | SK-OV-3 31.8 µM | COLO 205 23.2 µM | NCI-H522 14.7 µM | HOP-62 20.1 µM | OVCAR-3 20.7 µM | EKVX 29.7 µM | SF-295 22.2 µM | SF-539 17.8 µM | DMS-273 31.9 µM | SNB-78 30.4 µM | ACHN 22.5 µM

N#CCC(=O)Nc1cccc(C(F)(F)F)c1
inactive: 786-0 > 100 µM | A498 > 100 µM | UACC-257 > 100 µM | U-251 > 100 µM | NCI-H226 > 100 µM | SK-OV-3 > 100 µM | COLO 205 > 100 µM | NCI-H522 > 100 µM | HOP-62 > 100 µM | OVCAR-3 84.3 µM | EKVX > 100 µM | SF-295 > 100 µM | SF-539 > 100 µM | SK-MEL-28 > 100 µM | DMS-273 > 100 µM | SNB-78 > 100 µM | ACHN > 100 µM

CC(C)C1=CC(=O)C(C)(C2=NC(C)(C)CO2)c2ccccc21 (stereo not drawn)
inactive: 786-0 > 100 µM | UACC-257 63.8 µM | U-251 > 100 µM | NCI-H226 51.5 µM | SK-OV-3 88.5 µM | COLO 205 > 100 µM | NCI-H522 32.9 µM | HOP-62 > 100 µM | OVCAR-3 > 100 µM | DMS-114 51.4 µM | EKVX 96.6 µM | SF-295 > 100 µM | SF-539 > 100 µM | SK-MEL-28 > 100 µM | DMS-273 > 100 µM | ACHN > 100 µM

CCCP1(=O)C=C(C)C(=C(Cl)Cl)C(C)=C1 (stereo not drawn)
inactive: 786-0 44.5 µM | A498 68.9 µM | UACC-257 64.4 µM | U-251 > 100 µM | COLO 205 36.1 µM | NCI-H522 18.3 µM | HOP-62 49.3 µM | OVCAR-3 84.9 µM | DMS-114 36.1 µM | EKVX 83 µM | SF-295 35.2 µM | SF-539 37.3 µM | SK-MEL-28 44.1 µM | SNB-78 57.3 µM | ACHN 44.3 µM

CC/C=C\C/C=C\C1CC(=O)NCCCNCCCCN1 (stereo not drawn)
inactive: 786-0 > 100 µM | UACC-257 > 100 µM | U-251 > 100 µM | NCI-H226 59.7 µM | COLO 205 > 100 µM | NCI-H522 55.3 µM | HOP-62 > 100 µM | DMS-114 > 100 µM | EKVX > 100 µM | SF-295 > 100 µM | SF-539 > 100 µM | SK-MEL-28 > 100 µM | DMS-273 > 100 µM | SNB-78 > 100 µM

Cc1cccc2c1CC(C1OC(=O)c3ccccc31)C2=O (stereo not drawn)
inactive: BT-549 > 100 µM | 786-0 > 100 µM | A498 > 100 µM | UACC-257 > 100 µM | U-251 > 100 µM | NCI-H226 > 100 µM | SK-OV-3 > 100 µM | COLO 205 > 100 µM | NCI-H522 > 100 µM | HOP-62 > 100 µM | OVCAR-3 > 100 µM | EKVX > 100 µM | MCF7 > 100 µM | SF-295 > 100 µM | SF-539 > 100 µM | SK-MEL-28 > 100 µM | ACHN > 100 µM

CN(C)CC(/C(Cc1ccccc1)=N\NC(=S)NN)c1ccccc1 (stereo not drawn)
inactive: 786-0 > 100 µM | UACC-257 > 100 µM | U-251 > 100 µM | NCI-H226 > 100 µM | SK-OV-3 > 100 µM | COLO 205 > 100 µM | NCI-H522 > 100 µM | HOP-62 > 100 µM | OVCAR-3 > 100 µM | DMS-114 > 100 µM | SF-295 > 100 µM | SF-539 > 100 µM | SK-MEL-28 > 100 µM | DMS-273 > 100 µM | SNB-78 > 100 µM | ACHN > 100 µM

Cc1ccc(NC(=O)C(=O)Cc2cccc[n+]2[O-])cc1C
inactive: 786-0 > 100 µM | A498 > 100 µM | UACC-257 > 100 µM | U-251 > 100 µM | NCI-H226 > 100 µM | SK-OV-3 > 100 µM | COLO 205 > 100 µM | NCI-H522 > 100 µM | HOP-62 > 100 µM | OVCAR-3 > 100 µM | DMS-114 > 100 µM | EKVX > 100 µM | SF-295 > 100 µM | SF-539 > 100 µM | SK-MEL-28 > 100 µM | SNB-78 > 100 µM | ACHN > 100 µM

C1=C\CCCCN2C[C@H]3CCCC/C=C\CCCCN4CC[C@@H]([C@H](CCCCCC/1)C4)[C@H](C3)C2
inactive: BT-549 6.79 µM | 786-0 1.75 µM | A498 6.65 µM | UACC-257 1.76 µM | U-251 2.2 µM | NCI-H226 17.6 µM | SK-OV-3 8.09 µM | COLO 205 2.07 µM | NCI-H522 1.69 µM | HOP-62 2.23 µM | OVCAR-3 1.8 µM | EKVX 7.11 µM | MCF7 1.93 µM | SF-295 1.71 µM | SF-539 1.87 µM | SK-MEL-28 1.93 µM | ACHN 2.07 µM

c1cnc2c(c1)-n1cccc1C1(CCSCC1)NN2
inactive: 786-0 > 100 µM | UACC-257 90.2 µM | NCI-H226 59 µM | COLO 205 > 100 µM | NCI-H522 95.3 µM | HOP-62 > 100 µM | OVCAR-3 > 100 µM | EKVX > 100 µM | SF-295 > 100 µM | SF-539 > 100 µM | SK-MEL-28 > 100 µM | DMS-273 > 100 µM | ACHN > 100 µM

CC(=O)Nc1ccc(S(=O)(=O)N/N=C(\C)CN2C(=O)c3ccccc3C2=O)cc1
inactive: 786-0 > 100 µM | A498 > 100 µM | UACC-257 > 100 µM | U-251 > 100 µM | NCI-H226 > 100 µM | SK-OV-3 > 100 µM | COLO 205 > 100 µM | NCI-H522 > 100 µM | HOP-62 > 100 µM | OVCAR-3 > 100 µM | EKVX > 100 µM | SF-295 > 100 µM | SF-539 > 100 µM | DMS-273 > 100 µM | SNB-78 > 100 µM | ACHN > 100 µM

CN1C(Cl)=NS(=O)(=O)c2ccccc21
inactive: BT-549 > 100 µM | 786-0 > 100 µM | A498 58.2 µM | UACC-257 > 100 µM | U-251 > 100 µM | NCI-H226 > 100 µM | SK-OV-3 > 100 µM | COLO 205 43 µM | NCI-H522 28 µM | HOP-62 > 100 µM | OVCAR-3 > 100 µM | EKVX > 100 µM | MCF7 > 100 µM | SF-295 > 100 µM | SF-539 > 100 µM | SK-MEL-28 > 100 µM | ACHN > 100 µM

FC(F)(F)C1(c2ccccc2)SCc2nc3ccccc3n21 (stereo not drawn)
inactive: BT-549 > 100 µM | 786-0 > 100 µM | A498 > 100 µM | UACC-257 > 100 µM | U-251 > 100 µM | NCI-H226 > 100 µM | SK-OV-3 > 100 µM | COLO 205 > 100 µM | NCI-H522 55.6 µM | HOP-62 > 100 µM | OVCAR-3 > 100 µM | EKVX > 100 µM | MCF7 > 100 µM | SF-295 > 100 µM | SF-539 > 100 µM | SK-MEL-28 > 100 µM | ACHN > 100 µM

COC(=O)C1=C(C(=O)OC)C2(c3ccccc3)c3ccccc3C(=O)C1N2C1CCCCC1 (stereo not drawn)
inactive: BT-549 > 100 µM | 786-0 47.4 µM | A498 > 66.1 µM | UACC-257 11.9 µM | U-251 49.9 µM | NCI-H226 50.4 µM | SK-OV-3 > 96.2 µM | COLO 205 16.8 µM | NCI-H522 34.6 µM | HOP-62 > 68.9 µM | OVCAR-3 72.6 µM | EKVX 55.6 µM | MCF7 37.7 µM | SF-295 25.5 µM | SF-539 69.3 µM | SK-MEL-28 > 62.1 µM | ACHN 29.2 µM

Cc1cc(N2CCCCC2)nc2ccc(Cc3ccc4nc(N5CCCCC5)cc(C)c4c3)cc12
inactive: BT-549 > 100 µM | 786-0 > 100 µM | A498 > 100 µM | UACC-257 53.6 µM | U-251 > 100 µM | NCI-H226 > 100 µM | SK-OV-3 > 100 µM | COLO 205 44.5 µM | NCI-H522 83.2 µM | HOP-62 > 100 µM | OVCAR-3 > 100 µM | EKVX 18.2 µM | MCF7 > 100 µM | SF-295 > 100 µM | SF-539 > 100 µM | SK-MEL-28 > 100 µM | ACHN > 100 µM

CCOC1c2cc(C(C)C)c(O)c(O)c2[C@@]23CCCC(C)(C)C2C1OC3=O (stereo partly drawn)
inactive: 786-0 > 100 µM | UACC-257 > 100 µM | U-251 > 100 µM | NCI-H226 > 100 µM | SK-OV-3 > 100 µM | COLO 205 > 100 µM | NCI-H522 30.6 µM | HOP-62 > 100 µM | OVCAR-3 84.5 µM | DMS-114 62.4 µM | EKVX > 100 µM | SF-295 > 100 µM | SF-539 > 100 µM | SK-MEL-28 > 100 µM | DMS-273 > 100 µM | SNB-78 > 100 µM | ACHN 78 µM
